In ChEMBL document CHEMBL4000232, “Structure-based optimization of 1H-imidazole-2-carboxamides as Axl kinase inhibitors utilizing a Mer mutant surrogate” (Bioorg Med Chem Lett, 2017):
pIC50: −log10 of the molar value.

Legend:
[1] = Permeability of the compound by PAMPA; format: physicochemical; settings: read-out: permeability
[2] = Oral bioavailability in rat; format: ADME, organism-based; settings: in vivo
hERG (KCNH2) = hERG (KCNH2) (Homo sapiens, UniProt Q12809); test: Inhibition of human ERG at 10 uM relative to control
[3] = Clearance in rat; format: ADME; settings: in vivo
[4] = Extraction ratio in rat hepatic microsomes; format: ADME, Microsome; settings: liver microsomes, read-out: ERH
[5] = target: T1, Tyrosine-protein kinase receptor UFO (Homo sapiens, UniProt P30530); test: Inhibition of Axl (unknown origin)
T1 sequence (P30530 whole entry): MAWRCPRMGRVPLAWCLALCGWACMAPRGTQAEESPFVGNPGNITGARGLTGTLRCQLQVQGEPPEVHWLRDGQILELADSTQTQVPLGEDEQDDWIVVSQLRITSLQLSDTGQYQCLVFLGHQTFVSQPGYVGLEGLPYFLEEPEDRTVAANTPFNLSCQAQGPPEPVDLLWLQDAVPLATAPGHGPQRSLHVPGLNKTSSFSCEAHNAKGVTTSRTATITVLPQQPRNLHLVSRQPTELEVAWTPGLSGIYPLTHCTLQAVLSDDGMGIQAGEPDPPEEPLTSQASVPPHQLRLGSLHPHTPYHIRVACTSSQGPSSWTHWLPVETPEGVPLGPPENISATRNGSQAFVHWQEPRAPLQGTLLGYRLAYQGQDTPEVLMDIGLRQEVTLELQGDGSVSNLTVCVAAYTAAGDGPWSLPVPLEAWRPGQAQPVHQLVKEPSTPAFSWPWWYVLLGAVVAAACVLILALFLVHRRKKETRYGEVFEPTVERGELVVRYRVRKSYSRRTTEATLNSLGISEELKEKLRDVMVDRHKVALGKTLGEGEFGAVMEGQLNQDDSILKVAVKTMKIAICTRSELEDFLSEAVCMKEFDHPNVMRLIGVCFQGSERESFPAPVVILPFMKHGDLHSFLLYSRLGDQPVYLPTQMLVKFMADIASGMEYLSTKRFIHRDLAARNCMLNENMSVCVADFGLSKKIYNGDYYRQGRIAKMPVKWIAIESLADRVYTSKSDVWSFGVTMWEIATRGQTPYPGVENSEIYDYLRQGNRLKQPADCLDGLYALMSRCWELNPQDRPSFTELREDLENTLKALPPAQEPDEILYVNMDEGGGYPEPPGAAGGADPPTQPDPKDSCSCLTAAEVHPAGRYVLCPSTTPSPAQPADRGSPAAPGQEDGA

[6] = Extraction ratio in human hepatic microsomes; format: ADME, Microsome; settings: liver microsomes, read-out: ERH
[7] = Protein binding in human plasma; format: ADME, cell-free; settings: read-out: PPB (converted)
Liver = test: Intrinsic clearance in rat liver microsomes; format: ADME, microsome
[8] = Inhibition of CYP450 (unknown origin); format: ADME; settings: human
HepG2 = test: Cytotoxicity against human HepG2 cells; format: functional
[9] = Protein binding in rat plasma; format: ADME, cell-free; settings: read-out: PPB (converted)

Sequence of hERG (KCNH2) (Q12809 whole entry): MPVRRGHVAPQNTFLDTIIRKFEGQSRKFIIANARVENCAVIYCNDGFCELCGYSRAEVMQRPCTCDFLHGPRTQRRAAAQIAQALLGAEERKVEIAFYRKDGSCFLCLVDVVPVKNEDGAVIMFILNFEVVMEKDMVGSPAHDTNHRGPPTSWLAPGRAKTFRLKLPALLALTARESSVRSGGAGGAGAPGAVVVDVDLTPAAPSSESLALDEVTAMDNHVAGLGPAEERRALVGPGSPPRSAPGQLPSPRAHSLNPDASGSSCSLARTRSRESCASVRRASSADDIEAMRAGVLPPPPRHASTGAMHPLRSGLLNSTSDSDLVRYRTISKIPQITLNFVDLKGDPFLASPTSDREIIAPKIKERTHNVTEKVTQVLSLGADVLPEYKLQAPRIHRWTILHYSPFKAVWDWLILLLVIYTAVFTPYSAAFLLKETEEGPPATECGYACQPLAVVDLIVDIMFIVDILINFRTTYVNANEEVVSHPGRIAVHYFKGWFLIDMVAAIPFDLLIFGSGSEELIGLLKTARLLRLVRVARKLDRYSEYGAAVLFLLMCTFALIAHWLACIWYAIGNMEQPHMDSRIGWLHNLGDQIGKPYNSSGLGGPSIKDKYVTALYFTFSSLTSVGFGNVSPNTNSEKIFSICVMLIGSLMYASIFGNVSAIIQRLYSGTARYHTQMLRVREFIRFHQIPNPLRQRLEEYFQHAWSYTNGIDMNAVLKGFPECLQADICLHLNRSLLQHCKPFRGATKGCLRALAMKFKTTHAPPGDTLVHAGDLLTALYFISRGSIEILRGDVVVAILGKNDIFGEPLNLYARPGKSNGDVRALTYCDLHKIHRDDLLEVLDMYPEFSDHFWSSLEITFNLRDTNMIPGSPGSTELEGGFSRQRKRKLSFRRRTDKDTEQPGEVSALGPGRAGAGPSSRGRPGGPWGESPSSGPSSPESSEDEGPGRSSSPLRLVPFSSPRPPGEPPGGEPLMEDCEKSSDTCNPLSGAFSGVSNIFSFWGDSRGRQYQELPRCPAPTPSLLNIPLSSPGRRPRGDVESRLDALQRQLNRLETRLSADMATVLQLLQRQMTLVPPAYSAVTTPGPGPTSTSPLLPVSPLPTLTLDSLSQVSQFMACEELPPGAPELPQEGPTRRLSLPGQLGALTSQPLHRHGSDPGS

SMILES | hepatic extraction ratio [4] | pIC50 [5] | hepatic extraction ratio [6] | other results
CS(=O)(=O)N1CCC[C@H](c2csc(-c3ccccc3NC(=O)c3ncc[nH]3)n2)C1 | – | – | – | Papp [1]: 15.7 ×10⁻⁶ cm/s; bioavailability [2]: 13%; inhibition at 10 µM (hERG (KCNH2)): 94%; clearance [3]: 20 mL/min/kg
CS(=O)(=O)N1CCC[C@H](c2csc(-c3ccccc3NC(=O)c3nc4ccccc4[nH]3)n2)C1 | 0.87 | < 6.00 | 0.86 | –
COC(=O)N1CCC[C@H](c2csc(-c3ccccc3NC(=O)c3ncc[nH]3)n2)C1 | 0.69 | < 6.00 | 0.75 | –
CS(=O)(=O)N1CCC[C@H](c2csc(-c3ccccc3NC(=O)c3cnc[nH]3)n2)C1 | 0.71 | < 6.00 | 0.9 | –
CS(=O)(=O)N1CCO[C@H](c2csc(-c3cc(N4CCOCC4)ccc3NC(=O)c3ncc[nH]3)n2)C1 | – | – | – | fraction unbound [7]: 0.21; CLH (Liver): 35 mL/min/kg; Papp [1]: 18.4 ×10⁻⁶ cm/s; inhibition (INH) [8]: > 16%; Activity (HepG2): 14 µM; bioavailability [2]: 38%; fraction unbound [9]: 0.1; inhibition at 10 µM (hERG (KCNH2)): 19%; clearance [3]: 54 mL/min/kg
CC(=O)N1CCC[C@H](c2csc(-c3ccccc3NC(=O)c3ncc[nH]3)n2)C1 | 0.67 | < 6.00 | 0.78 | –
CCS(=O)(=O)N1CCC[C@H](c2csc(-c3ccccc3NC(=O)c3ncc[nH]3)n2)C1 | 0.86 | < 6.20 | 0.95 | –
